# Assays:
# [1] = molecular target: Mitogen-activated protein kinase kinase kinase kinase 1 (Homo sapiens, UniProt Q92918); test: HPK1 Lantha Binding Assay (“Lanth”)
# Description: (§1) Assay Condition:The following assay concentrations and times were used: 2 nM HPK1, 2 nM Eu-Anti-GST Ab, and 15 nM Tracer222, with 60 min incubation time.HPK Lantha Binding Assay:For the binding assay, 4 ul 2X HPK1 and Eu-anti-GST antibody were added to each well of the assay plate using a Multidrop reagent dispenser. The solutions were incubated in a 23 C incubator for 1 h. To each well of the assay plate was added 4 ul 2× Tracer-222 using a Multidrop reagent dispenser. The solutions were again incubated in a 23 C incubator for 1 h. The results of the assay were read using an Envision plate reader with the following parameters:TR_FRET, 340ex/615 and 665em; 100 usec Delay; and 200 usec integration.
# [2] = molecular target: T1, Mitogen-activated protein kinase kinase kinase kinase 1 [T165E,S171E] (Homo sapiens, UniProt Q92918, S171E/T165E); test: HPK1 Lantha Binding Assay (“Lanth”)
# T1 construct: gene MAP4K1
# T1 sequence (Q92918 whole entry T165E/S171E, looked up): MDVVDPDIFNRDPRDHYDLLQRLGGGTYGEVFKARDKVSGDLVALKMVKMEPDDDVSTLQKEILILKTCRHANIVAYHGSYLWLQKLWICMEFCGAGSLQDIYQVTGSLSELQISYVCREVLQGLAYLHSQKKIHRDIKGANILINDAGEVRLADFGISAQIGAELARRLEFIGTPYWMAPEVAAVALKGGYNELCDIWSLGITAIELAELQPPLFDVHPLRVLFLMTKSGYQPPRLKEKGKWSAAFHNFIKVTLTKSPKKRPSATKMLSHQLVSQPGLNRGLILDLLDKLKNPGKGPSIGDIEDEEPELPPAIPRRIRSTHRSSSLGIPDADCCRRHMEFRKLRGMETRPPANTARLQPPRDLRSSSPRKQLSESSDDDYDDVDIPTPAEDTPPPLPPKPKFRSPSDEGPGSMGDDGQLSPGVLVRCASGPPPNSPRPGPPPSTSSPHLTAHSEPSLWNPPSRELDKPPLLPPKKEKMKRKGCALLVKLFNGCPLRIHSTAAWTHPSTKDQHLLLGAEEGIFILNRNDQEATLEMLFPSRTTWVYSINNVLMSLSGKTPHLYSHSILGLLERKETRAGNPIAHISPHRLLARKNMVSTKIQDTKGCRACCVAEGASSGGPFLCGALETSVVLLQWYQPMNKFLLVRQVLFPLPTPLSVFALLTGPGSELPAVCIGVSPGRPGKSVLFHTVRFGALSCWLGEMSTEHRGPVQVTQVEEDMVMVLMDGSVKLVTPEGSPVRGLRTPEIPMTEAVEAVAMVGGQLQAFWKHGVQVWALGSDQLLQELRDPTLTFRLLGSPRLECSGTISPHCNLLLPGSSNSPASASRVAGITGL
# Description: as §1
# Sequence of Mitogen-activated protein kinase kinase kinase kinase 1 (Q92918 whole entry): as the sequence (Q92918 whole entry T165E/S171E, looked up) above, with E165T, E171S counted along it
SMILES,Ki [1],Ki [2]
"CCc1ccnc(Nc2cc3cc(-c4cnccc4C)ccc3cn2)c1 [US12378249, Compound 105]",6 nM,–
"Cc1c(N)cncc1-c1cc2cc(Nc3cc4n(n3)CC(=O)N(CCN3CC(O)C3)CC4)ncc2cc1F [US12378249, Compound 165]",–,0.013 nM
